Results on one compound are retold here after US20060167005A1, “New therapeutic uses of (4-(2-fluorophenyl)-6-methyl-2-(1-piperazinyl) thieno [2,3-d] pyrimidine” (priority 2002, published 2006).

The subject of one test is ferret. In words: Cisplatin-induced emesis in the ferret. It counts as in vivo. The following applies: 30 mg/kg orally 1 hour prior to cisplatin, vs control animals. The source says: The effects of MCI-225 are studied against cisplatin-induced emesis in the ferret (see Florczyk et al, 1982, Cancer Treat. Rep. 66(1):187-189). […] Efficacy against cisplatin predicts efficacy against radiation-induced nausea/vomiting.

In another test the test system is alcohol-preferring rats. In words: Alcohol intake in alcohol-preferring rats. The following applies: 30 mg/kg/day orally over 4 consecutive days, vs vehicle. It counts as in vivo, rat. As for the experimental part:
The effects of MCI-225 are determined in alcohol-preferring rats. Because of their pattern of drinking, these animals seem to represent a valid model of the human condition of alcoholism (McBride et al, 1990, Alcohol 7:199-205, Lankford et al, 1991, Pharmacol. Biochem. Behav., 8:293-299). After maximally preferred alcohol concentrations had stabilised for 4 days, MCI-225 at 30 mg/kg/day orally or vehicle was administered over 4 consecutive days.

Test [1] concerns adult female obese Zucker rats. As to the kind of experiment: Obesity and weight gain in obese Zucker rats over 32 days. It is filed as in vivo, rat. The following applies: 30 mg/kg orally once daily, vs vehicle group. As for the experimental part:
MCI-225 is evaluated in adult female obese Zucker rats over a period of 32 days. A control group of 6 animals is dosed daily with vehicle alone whilst a second group of 6 weight-matched animals receives MCI-225 at 30 mg/kg given orally once daily. Food is available ad libitum, except on days 0, 7, 14, 21, 28 and 32 when food was removed from the animals at 7.30 am and animals weighed within 2 hours following removal of food. Food is supplied after weights of animals are measured.

Test [2] concerns rats. As to the kind of experiment: Transient middle cerebral artery occlusion model in rats. It counts as in vivo, rat. The conditions noted are these: 30 mg/kg, for example 2 hours after onset of occlusion, vs vehicle-treated animals. The source says:
The effects of MCI-225 are studied in a transient middle cerebral artery occlusion model in rats (see Chen et al, 1999, J. Neurol. Sci. 171(1):24-30). In particular, effects on an array of functional measures are studied, including rotarod, adhesive-backed somatosensory and neurological scores.

Test [3] deals with rats. In words: Nicotine withdrawal model using the acoustic startle reflex in rats. It counts as in vivo, rat. The conditions noted are these: for example 30 mg/kg/day following nicotine withdrawal (nicotine 6 mg/kg/day s.c. for 12 days). As for the experimental part: The effects of MCI-225 are investigated in a model of nicotine withdrawal using the acoustic startle reflex in rats (see e.g. Helton et al, 1997, Neuropharmacology 36 (11-12):1511-1516). Nicotine (6 mg/kg/day) is administered for 12 days subcutaneously by osmotic minipumps. After 12 days, the pumps are removed and the animals allowed to go through spontaneous withdrawal. Cessation of chronic nicotine exposure leads to increased startle responses (sensorimotor reactivity) for 4 days following withdrawal.

Regarding `Cc1cc2c(-c3ccccc3F)nc(N3CCNCC3)nc2s1.Cl.O` [MCI-225], the emetic response result in the test on ferret is reported as “reduction in the emetic response”. Besides, in the test with alcohol-preferring rats, the “intake of alcohol in terms of absolute g/kg and/or proportion of alcohol to total fluid intake” value is “reduction in intake of alcohol”. In addition, in test [1], the body weights entry is on record as “lower body weights”. Also, in the test on rats [2], the “functional scores (rotarod, adhesive-backed somatosensory, neurological) following ischaemia” value is “improvement in one or more of the functional scores”. Further, in the test with rats [3], the “enhanced auditory startle response following withdrawal of nicotine” value is given as “attenuation of the enhanced auditory startle response”.
